Data taken from PubChem BioAssay AID1845201 (Molecular Pharmacology Branch, DTP, NCI, 2023).

System: COR L88 complex tumor spheroid viability
Assay: Anticancer human tumor COR L88 cell line growth inhibition;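 also: compound exposure lasted 7 days before viability readout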;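 as to viability, T/C: percent of DMSO vehicle-treated spheroids = 100%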
Conditions: for IC50: curve of first compound; for viability, T/C: stronger effect = lower value
Procedure, shortened: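 Complex spheroids of malignant cells with endothelial cells and mesenchymal stem cells; agents alone or combined, from near clinical Cmax (or 10 microM if unknown) down in half-log steps, 0.25% DMSO final.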

[1] = second compound 30 pM, first compound 0.00949 µM
[2] = second compound 30 pM, first compound 0.03 µM
[3] = second compound 30 pM, first compound 0.0949 µM
[4] = second compound 30 pM, first compound 0.3 µM
[5] = second compound 30 pM, first compound 0.949 µM
[6] = second compound 30 pM, first compound 3 µM
[7] = second compound 94.9 pM, first compound 0.00949 µM
[8] = second compound 94.9 pM, first compound 0.03 µM
[9] = second compound 94.9 pM, first compound 0.0949 µM
[10] = second compound 94.9 pM, first compound 0.3 µM
[11] = second compound 94.9 pM, first compound 0.949 µM
[12] = second compound 94.9 pM, first compound 3 µM
[13] = second compound 0.0003 µM, first compound 0.00949 µM
[14] = second compound 0.0003 µM, first compound 0.03 µM
[15] = second compound 0.0003 µM, first compound 0.0949 µM
[16] = second compound 0.0003 µM, first compound 0.3 µM
[17] = second compound 0.0003 µM, first compound 0.949 µM
[18] = second compound 0.0003 µM, first compound 3 µM
[19] = second compound 0.000949 µM, first compound 0.00949 µM
[20] = second compound 0.000949 µM, first compound 0.03 µM
[21] = second compound 0.000949 µM, first compound 0.0949 µM
[22] = second compound 0.000949 µM, first compound 0.3 µM
[23] = second compound 0.000949 µM, first compound 0.949 µM
[24] = second compound 0.000949 µM, first compound 3 µM
[25] = second compound 0.003 µM, first compound 0.00949 µM
[26] = second compound 0.003 µM, first compound 0.03 µM
[27] = second compound 0.003 µM, first compound 0.0949 µM
[28] = second compound 0.003 µM, first compound 0.3 µM
[29] = second compound 0.003 µM, first compound 0.949 µM
[30] = second compound 0.003 µM, first compound 3 µM

Structure (SMILES) | IC50 (second compound 30 pM) [nM] | IC50 (second compound 94.9 pM) [nM] | IC50 (second compound 0.0003 µM) [nM] | IC50 (second compound 0.000949 µM) [nM] | IC50 (second compound 0.003 µM) [nM] | viability, T/C [3] [%] | viability, T/C [4] [%] | viability, T/C [5] [%] | viability, T/C [6] [%] | viability, T/C [9] [%] | viability, T/C [10] [%] | viability, T/C [11] [%] | viability, T/C [12] [%] | viability, T/C [15] [%] | viability, T/C [16] [%] | viability, T/C [17] [%] | viability, T/C [18] [%] | viability, T/C [21] [%] | viability, T/C [22] [%] | viability, T/C [23] [%] | other results
CNCc1ccc(-c2cc(-c3nc(-c4ccc(S(=O)(=O)C(C)C)cc4)cnc3N)on2)cc1 + COc1cc2c(cc1O)CCNC21CSC2c3c(OC(C)=O)c(C)c4c(c3C(COC1=O)N1C(O)C3Cc5cc(C)c(OC)c(O)c5C(C21)N3C)OCO4 | 394 | 331 | 248 | 30.7 | < 9.49 | 101 | 57.5 | 22.4 | 7.83 | 101 | 50.2 | 22.5 | 5.19 | 75.9 | 43.7 | 19.8 | 8.93 | 31.6 | 10.9 | 7.96 | viability, T/C [1]: 108%; viability, T/C [2]: 110%; viability, T/C [7]: 102%; viability, T/C [8]: 106%; viability, T/C [13]: 82%; viability, T/C [14]: 91.2%; viability, T/C [19]: 62.4%; viability, T/C [20]: 49.4%; viability, T/C [24]: 3.08%; viability, T/C [25]: 0.92%; viability, T/C [26]: 0.86%; viability, T/C [27]: 0.58%; viability, T/C [28]: 0.62%; viability, T/C [29]: 0.86%; viability, T/C [30]: 0.52%
Cn1ncnc1[C@H]1c2n[nH]c(=O)c3cc(F)cc(c23)N[C@@H]1c1ccc(F)cc1 + COc1cc2c(cc1O)CCNC21CSC2c3c(OC(C)=O)c(C)c4c(c3C(COC1=O)N1C(O)C3Cc5cc(C)c(OC)c(O)c5C(C21)N3C)OCO4 | 255 | 120 | 40.1 | < 9.49 | < 9.49 | 58.9 | 47.3 | 43.9 | 37.3 | 50.5 | 45.8 | 42.5 | 38.5 | 46.1 | 43.6 | 39.4 | 41 | 44.2 | 36.2 | 13.9 | viability, T/C [1]: 90.9%; viability, T/C [2]: 72.8%; viability, T/C [7]: 77.1%; viability, T/C [8]: 61.3%; viability, T/C [13]: 57.9%; viability, T/C [14]: 51.9%; viability, T/C [19]: 53.6%; viability, T/C [20]: 45%; viability, T/C [24]: 2.75%; viability, T/C [25]: 1.06%; viability, T/C [26]: 0.96%; viability, T/C [27]: 0.96%; viability, T/C [28]: 0.79%; viability, T/C [29]: 1.64%; viability, T/C [30]: 2.68%
O=C(c1cc(Cc2n[nH]c(=O)c3ccccc23)ccc1F)N1CCN(C(=O)C2CC2)CC1 + COc1cc2c(cc1O)CCNC21CSC2c3c(OC(C)=O)c(C)c4c(c3C(COC1=O)N1C(O)C3Cc5cc(C)c(OC)c(O)c5C(C21)N3C)OCO4 | 14500 | 11300 | > 30000 | 683 | < 94.9 | 93.6 | 107 | 95 | 81.7 | 98.9 | 96.4 | 101 | 71.8 | 74.9 | 63.4 | 64.1 | 60.6 | 57.2 | 56.2 | 42.6 | viability, T/C (second compound 30 pM, first compound 9.49 µM): 54.6%; viability, T/C (second compound 30 pM, first compound 30 µM): 42.4%; viability, T/C (second compound 94.9 pM, first compound 9.49 µM): 54.9%; viability, T/C (second compound 94.9 pM, first compound 30 µM): 43%; viability, T/C (second compound 0.0003 µM, first compound 9.49 µM): 48.5%; viability, T/C (second compound 0.0003 µM, first compound 30 µM): 56.8%; viability, T/C [24]: 40.7%; viability, T/C (second compound 0.000949 µM, first compound 9.49 µM): 13.7%; viability, T/C (second compound 0.000949 µM, first compound 30 µM): 2.22%; viability, T/C [27]: 1.02%; viability, T/C [28]: 1.05%; viability, T/C [29]: 0.95%; viability, T/C [30]: 1.92%; viability, T/C (second compound 0.003 µM, first compound 9.49 µM): 2.21%; viability, T/C (second compound 0.003 µM, first compound 30 µM): 3.25%
